Experimental data reported in patent US20060069132A1, “Azolecarboxamide herbicides” (priority 2004, published 2006).

Tests used:
velvetleaf [1] = assay: Test C pre-/postemergence herbicide test; format: in vivo, Abutilon theophrasti
Method in brief: (§1)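 Visual injury scores run from 0 (no effect) to 100 (complete control), assessed relative to untreated controls 12 to 14 days after treatment in the greenhouse. Chemicals were formulated in a non-phytotoxic solvent mixture with surfactant and applied to soil after planting or to emerged plants at the 1- to 4-leaf stage.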

velvetleaf [2] = assay: Test A pre-/postemergence herbicide test; format: in vivo, Abutilon theophrasti
Method in brief: (§2)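 Pre: seeded sandy loam, directed soil spray, compound in non-phytotoxic solvent + surfactant. Post: 1–2-leaf plants (2–10 cm), sprayed to runoff. Greenhouse ~10 d; visual injury vs untreated, 0–100 scale.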

barnyardgrass = assay: Test A pre-/postemergence herbicide test; format: in vivo, Echinochloa crus-galli
Method in brief: as §2

cocklebur = assay: Test C pre-/postemergence herbicide test; format: in vivo, Xanthium strumarium
Method in brief: as §1

corn = assay: Test C pre-/postemergence herbicide test; format: in vivo, Zea mays
Method in brief: as §1

soybean = assay: Test C pre-/postemergence herbicide test; format: in vivo, Glycine max
Method in brief: as §1

bermudagrass = assay: Test C pre-/postemergence herbicide test; format: in vivo, Cynodon dactylon
Method in brief: as §1

morningglory = assay: Test A pre-/postemergence herbicide test; format: in vivo, Ipomoea spp.
Method in brief: as §2

goosegrass = assay: Test C pre-/postemergence herbicide test; format: in vivo, Eleusine indica
Method in brief: as §1

johnsongrass = assay: Test C pre-/postemergence herbicide test; format: in vivo, Sorghum halepense
Method in brief: as §1

[3] = 31 g ai/ha, preemergence, scale 0 to 100
[4] = 125 g ai/ha, scale 0 (no effect) to 100 (complete control), visual, 12 to 14 days, preemergence
[5] = 250 g ai/ha, scale 0 to 100 (0 no effect, 100 complete control), visual, 12 to 14 days, preemergence
[6] = Postemergence, 500 g ai/ha, 0 to 100 scale, 0 no effect, 100 complete control
[7] = Postemergence, 2000 g ai/ha, 0 to 100 scale, 0 no effect, 100 complete control
[8] = Preemergence, 500 g ai/ha, visual rating, 0 to 100 scale (0 no effect, 100 complete control)
[9] = Preemergence, 2000 g ai/ha, 0 to 100 scale, 0 no effect, 100 complete control
[10] = Postemergence, 500 g ai/ha, scale 0 to 100
[11] = Postemergence, 250 g ai/ha, scale 0 to 100, 0 no effect, 100 complete control
[12] = postemergence, 125 g ai/ha, scale 0 to 100
[13] = postemergence, 62 g ai/ha, scale 0 to 100
[14] = Preemergence, 2000 g ai/ha, visual rating, 0 to 100 scale (0 no effect, 100 complete control)
[15] = 62 g ai/ha, preemergence, scale 0 to 100
[16] = 500 g ai/ha, scale 0 to 100 (0 no effect, 100 complete control), visual, 12 to 14 days, preemergence
[17] = preemergence, 500 g ai/ha, visual injury, 0 to 100 scale (0 no effect, 100 complete control)
[18] = 250 g ai/ha, scale 0-100, preemergence

With CCCCn1nc(C(C)(C)C)cc1C(=O)Nc1cccc(C(=O)NCC)c1 [Compound 41] the “Plant response rating, Velvetleaf” value (velvetleaf [1]; [3]) was 0, the “Plant response rating (0 = no effect, 100 = complete control), Velvetleaf” value (velvetleaf [1]; 62 g ai/ha, preemergence) was 40 and the “Plant response rating, Velvetleaf” value (velvetleaf [1]; [4]) was 40. The “Plant response rating, Velvetleaf” value (velvetleaf [1]; [5]) was 100, the “Plant response rating, Velvetleaf” value (velvetleaf [2]; [6]) was 25 and the “Plant response rating, Velvetleaf” value (velvetleaf [2]; [7]) was 25. For the same compound, the “Velvetleaf plant response rating” value (velvetleaf [2]; [8]) was 25, the “Velvetleaf plant response rating” value (velvetleaf [2]; [9]) was 40 and the “Plant response rating, Barnyardgrass” value (barnyardgrass; [6]) was 30. For the same compound, the “Plant response rating, Barnyardgrass” value (barnyardgrass; [7]) was 60, the “Barnyardgrass plant response rating” value (barnyardgrass; [8]) was 40 and the “Barnyardgrass plant response rating” value (barnyardgrass; [9]) was 75. For the same compound, the “Plant response rating, Cocklebur” value (cocklebur; [3]) was 0, the “Plant response rating (0 = no effect, 100 = complete control), Cocklebur” value (cocklebur; 62 g ai/ha, preemergence) was 0 and the “Plant response rating, Cocklebur” value (cocklebur; [4]) was 0. The “Plant response rating, Cocklebur” value (cocklebur; [5]) was 10, the “Plant response rating (0 = no effect, 100 = complete control), Corn” value (corn; 62 g ai/ha, preemergence) was 0 and the “Plant response rating, Corn” value (corn; [4]) was 0. The “Plant response rating, Corn” value (corn; [5]) was 0, the “Plant response rating, Soybean” value (soybean; [3]) was 0 and the “Plant response rating (0 = no effect, 100 = complete control), Soybean” value (soybean; 62 g ai/ha, preemergence) was 0. The “Plant response rating, Soybean” value (soybean; [4]) was 0, the “Plant response rating, Soybean” value (soybean; [5]) was 10 and the “Plant response rating, Bermudagrass” value (bermudagrass; [3]) was 30. The “Plant response rating (0 = no effect, 100 = complete control), Bermudagrass” value (bermudagrass; 62 g ai/ha, preemergence) was 30, the “Plant response rating, Bermudagrass” value (bermudagrass; [4]) was 50 and the “Plant response rating, Bermudagrass” value (bermudagrass; [5]) was 100. For the same compound, the “Plant response rating, Morningglory” value (morningglory; [6]) was 10, the “Plant response rating, Morningglory” value (morningglory; [7]) was 10 and the “Morningglory plant response rating” value (morningglory; [8]) was 20. For the same compound, the “Morningglory plant response rating” value (morningglory; [9]) was 45, the “Plant response rating, Goosegrass” value (goosegrass; [3]) was 10 and the “Plant response rating (0 = no effect, 100 = complete control), Goosegrass” value (goosegrass; 62 g ai/ha, preemergence) was 20. The “Plant response rating, Goosegrass” value (goosegrass; [4]) was 30, the “Plant response rating, Goosegrass” value (goosegrass; [5]) was 40 and the “Plant response rating, Johnsongrass” value (johnsongrass; [3]) was 0. The “Plant response rating (0 = no effect, 100 = complete control), Johnsongrass” value (johnsongrass; 62 g ai/ha, preemergence) was 0 and the “Plant response rating, Johnsongrass” value (johnsongrass; [5]) was 20.
With C#CCOC(=O)c1cccc(NC(=O)c2cc(C(C)(C)C)nn2CC)c1 [Compound 84] the “Velvetleaf plant response rating” value (velvetleaf [1]; [10]) was 0, the “Plant response rating, Velvetleaf” value (velvetleaf [1]; [11]) was 0 and the “Plant response rating, Velvetleaf” value (velvetleaf [1]; [12]) was 0. The “Plant response rating, Velvetleaf” value (velvetleaf [1]; [13]) was 0, the “Velvetleaf plant response rating” value (velvetleaf [2]; [6]) was 20 and the “Plant response rating, Velvetleaf” value (velvetleaf [2]; [7]) was 20. The “Velvetleaf plant response rating” value (velvetleaf [2]; [8]) was 0, the “Velvetleaf plant response rating” value (velvetleaf [2]; [14]) was 0 and the “Barnyardgrass plant response rating” value (barnyardgrass; [6]) was 15. The “Plant response rating, Barnyardgrass” value (barnyardgrass; [7]) was 10, the “Barnyardgrass plant response rating” value (barnyardgrass; [8]) was 0 and the “Barnyardgrass plant response rating” value (barnyardgrass; [9]) was 0. For the same compound, the “Cocklebur plant response rating” value (cocklebur; [10]) was 0, the “Plant response rating, Cocklebur” value (cocklebur; [11]) was 0 and the “Plant response rating, Cocklebur” value (cocklebur; [12]) was 0. The “Plant response rating, Cocklebur” value (cocklebur; [13]) was 0, the “Corn plant response rating” value (corn; [10]) was 0 and the “Plant response rating, Corn” value (corn; [11]) was 0. For the same compound, the “Plant response rating, Corn” value (corn; [12]) was 0, the “Plant response rating, Corn” value (corn; [13]) was 0 and the “Soybean plant response rating” value (soybean; [10]) was 20. The “Plant response rating, Soybean” value (soybean; [11]) was 20, the “Plant response rating, Soybean” value (soybean; [12]) was 0 and the “Plant response rating, Soybean” value (soybean; [13]) was 0. For the same compound, the “Plant response rating, Bermudagrass” value (bermudagrass; [11]) was 0, the “Morningglory plant response rating” value (morningglory; [6]) was 5 and the “Plant response rating, Morningglory” value (morningglory; [7]) was 10. The “Morningglory plant response rating” value (morningglory; [8]) was 0, the “Goosegrass plant response rating” value (goosegrass; [10]) was 10 and the “Plant response rating, Goosegrass” value (goosegrass; [11]) was 5. For the same compound, the “Plant response rating, Goosegrass” value (goosegrass; [12]) was 0, the “Plant response rating, Goosegrass” value (goosegrass; [13]) was 0 and the “Johnsongrass plant response rating” value (johnsongrass; [10]) was 0. For the same compound, the “Plant response rating, Johnsongrass” value (johnsongrass; [11]) was 0, the “Plant response rating, Johnsongrass” value (johnsongrass; [12]) was 0 and the “Plant response rating, Johnsongrass” value (johnsongrass; [13]) was 0.
In the case of CCc1nn(C(C)(C)C)nc1C(=O)Nc1cccc(C(=O)NC2CC2)c1 [Compound 417], the “Plant response rating, Velvetleaf” value (velvetleaf [1]; [15]) is reported as 75, the “Plant response rating (0 = no effect, 100 = complete control), Velvetleaf” value (velvetleaf [1]; 125 g ai/ha, preemergence) is reported as 100 and the “Plant response rating, Velvetleaf” value (velvetleaf [1]; [16]) is reported as 100. The “Velvetleaf plant response rating” value (velvetleaf [2]; [6]) was 60, the “Plant response rating, Velvetleaf” value (velvetleaf [2]; [7]) was 90 and the “Velvetleaf plant response rating” value (velvetleaf [2]; [14]) was 70. The “Velvetleaf plant response rating” value (velvetleaf [2]; [17]) was 55, the “Barnyardgrass plant response rating” value (barnyardgrass; [6]) was 65 and the “Plant response rating, Barnyardgrass” value (barnyardgrass; [7]) was 80. For the same compound, the “Barnyardgrass plant response rating” value (barnyardgrass; [14]) was 85, the “Barnyardgrass plant response rating” value (barnyardgrass; [17]) was 60 and the “Plant response rating, Cocklebur” value (cocklebur; [15]) was 0. The “Plant response rating (0 = no effect, 100 = complete control), Cocklebur” value (cocklebur; 125 g ai/ha, preemergence) was 0, the “Plant response rating, Cocklebur” value (cocklebur; [18]) was 0 and the “Plant response rating, Cocklebur” value (cocklebur; [16]) was 0. For the same compound, the “Plant response rating, Corn” value (corn; [15]) was 0, the “Plant response rating (0 = no effect, 100 = complete control), Corn” value (corn; 125 g ai/ha, preemergence) was 0 and the “Plant response rating, Corn” value (corn; [18]) was 10. For the same compound, the “Plant response rating, Corn” value (corn; [16]) was 65, the “Plant response rating, Soybean” value (soybean; [15]) was 0 and the “Plant response rating (0 = no effect, 100 = complete control), Soybean” value (soybean; 125 g ai/ha, preemergence) was 0. The “Plant response rating, Soybean” value (soybean; [16]) was 40, the “Plant response rating, Bermudagrass” value (bermudagrass; 62 g ai/ha, preemergence, scale 0 to 100, 0 no effect, 100 complete control) was 100 and the “Plant response rating (0 = no effect, 100 = complete control), Bermudagrass” value (bermudagrass; 125 g ai/ha, preemergence) was 100. The “Plant response rating, Bermudagrass” value (bermudagrass; [18]) was 100, the “Plant response rating, Bermudagrass” value (bermudagrass; [16]) was 100 and the “Morningglory plant response rating” value (morningglory; [6]) was 70. For the same compound, the “Plant response rating, Morningglory” value (morningglory; [7]) was 85, the “Morningglory plant response rating” value (morningglory; [14]) was 80 and the “Morningglory plant response rating” value (morningglory; [17]) was 20. The “Plant response rating, Goosegrass” value (goosegrass; [15]) was 95, the “Plant response rating (0 = no effect, 100 = complete control), Goosegrass” value (goosegrass; 125 g ai/ha, preemergence) was 100 and the “Plant response rating, Goosegrass” value (goosegrass; [18]) was 100. The “Plant response rating, Goosegrass” value (goosegrass; [16]) was 100, the “Plant response rating, Johnsongrass” value (johnsongrass; [15]) was 100 and the “Plant response rating (0 = no effect, 100 = complete control), Johnsongrass” value (johnsongrass; 125 g ai/ha, preemergence) was 100. For the same compound, the “Plant response rating, Johnsongrass” value (johnsongrass; [18]) was 100 and the “Plant response rating, Johnsongrass” value (johnsongrass; [16]) was 100.
